From patent US11352352B2, “Aminopyrimidine compound, preparation method therefor and use thereof” (BEIJING ADAMADLE BIOTECHNOLOGY LIMITED LIABILITY COMPANY, priority 2017, dated 2022) come the findings set out here.

Common to all, as to assay: Cell proliferation inhibition experiment, CellTiter-Glo (CTG) method
Holding throughout (format): cell-based
A general note: Cellular ATP, detected with luciferase, serves as a proxy for viable cell number.

The test system of one assay is A-431. The conditions noted are these: Homo sapiens, A-431, 72 h, A-431 cells, 3 days. Put shortly: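 IC50 values come from sigmoidal dose-response fits of percent survival, measured by CellTiter-Glo luminescence after 3 days' culture with compound. Nine-point, threefold series in triplicate, starting at 30 μM for A-431 and at 1.111 μM for NCI-H1975 and PC-9.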
The next assay has as its system NCI-H1975. The following applies: for IC50: Homo sapiens, NCI-H1975, 72 h, NCI-H1975 cells, CTG, 3 days; for A-431/NCI-H1975 Selectivity: ratio of A-431 IC50 to NCI-H1975 IC50. Put shortly: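 NCI-H1975 cells with viability above 90% by trypan blue were seeded at 90 μL per well in black 96-well plates and incubated overnight at 37° C., 5% CO2. Compounds were added at nine concentrations in triplicate, and viability was measured with CellTiter-Glo luminescence on EnVision. IC50 came from non-linear S-curve fitting in GraphPad Prism 5.0.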

The subject of a further assay is PC-9. The conditions noted are these: Homo sapiens, PC-9, 72 h, PC-9 cells, 3 days. Put shortly: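 Cells in log-phase growth (viability above 90% by trypan blue) were seeded at 90 μL per well in black-walled, clear-bottom 96-well plates and incubated overnight at 37° C., 5% CO2. A T0 plate was read the next day. Test compounds were added at nine concentrations in triplicate with a solvent control. Viability was measured by CellTiter-Glo luminescence on EnVision, and IC50 came from non-linear S-curve fitting in GraphPad Prism 5.0.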

As for `C=CC(=O)Nc1cc(Nc2cc(-c3ccc4c(cnn4C)c3)ncn2)c(CC)cc1N1CCN(C)CC1` [compound 282], the IC50 with A-431 was 1370 nM; in the assay with NCI-H1975 it was 22.7 nM; in the assay on PC-9, 32.7 nM. Also, the “A-431/NCI-H1975 Selectivity” value in the assay with NCI-H1975 turned out to be 60.4.
On the same counts, the results for `C=CC(=O)Nc1cc(Nc2nccc(-c3ccc4c(cnn4C)c3)n2)c(OC(F)F)cc1N1CCN(CCN(C)C)CC1` [compound 114] are 1480 nM, 31.5 nM, 32.7 nM and 46.9.
On the same counts, the results for `C=CC(=O)Nc1cc(Nc2cc(-c3ccc4cnn(C)c4c3)ncn2)c(OC(F)F)cc1NCCN(C)C` [compound 181] are 1680 nM, 45.8 nM, 21.4 nM and 36.7.
Take `C=CC(=O)Nc1cc(Nc2cc(-c3ccc4cnn(C)c4c3)ncn2)c(OC(F)F)cc1N1CCN(CCN(C)C)CC1` [compound 182]: the IC50 was found to be 1740 nM with A-431, 53.3 nM in the assay with NCI-H1975 and 55.9 nM in the assay with PC-9. Besides, the “A-431/NCI-H1975 Selectivity” value with NCI-H1975 came to 32.6.
For `C=CC(=O)Nc1cc(Nc2cc(-c3ccc4c(cnn4C)c3)ncn2)c(OCC)cc1N(C)C1CCN(C)C1` (centres unmarked) [compound 66] the same measures were 779 nM, 8.1 nM, 8.5 nM and 96.2.
For `C=CC(=O)Nc1cc(Nc2nccc(-c3ccc4c(cnn4C)c3)n2)c(OC(F)F)cc1N(C)CCN1CCN(C)CC1` [compound 245] the same measures were 2380 nM, 61.6 nM, 70.7 nM and 38.6.
Turning to `C=CC(=O)Nc1cc(Nc2cc(-c3ccc4cnn(C)c4c3)ncn2)c(OC)cc1N(C)CCN(C)C` [compound 2], the figures for the IC50 in the assay on A-431, in the assay with NCI-H1975 and in the assay on PC-9 were 362 nM, 6.6 nM and 4.4 nM, respectively.
`C=CC(=O)Nc1cc(Nc2nccc(-c3ccc4c(cnn4C)c3)n2)c(OCC)cc1N(C)CCN(C)C` [compound 242]: the values for the IC50 in the assay with A-431, with NCI-H1975 and with PC-9 were 1200 nM, 26.7 nM and 28.1 nM, respectively. Further, in the assay with NCI-H1975, the “A-431/NCI-H1975 Selectivity” value is recorded as 45.0.
On the same counts, the results for `C=CC(=O)Nc1cc(Nc2cc(-c3ccc4c(cnn4C)c3)ncn2)c(OC)cc1N1CC(N(C)C)C1` [compound 10] are 1990 nM, 47.3 nM, 27.7 nM and 42.0.
On the same counts, the results for `C=CC(=O)Nc1cc(Nc2cc(-c3ccc4c(cnn4C)c3)ncn2)c(OC)cc1N1CCN(CC(=O)N(C)C)CC1` [compound 136] are 2300 nM, 56.2 nM, 45.6 nM and 41.1.
In the case of `C=CC(=O)Nc1cc(Nc2nccc(-c3ccc4c(cnn4C)c3)n2)c(OC)cc1N(C)CCNC(C)(C)C` [compound 246], the IC50 in the assay on A-431 was determined as 2300 nM; in the assay on NCI-H1975, 89.7 nM; with PC-9 it was 67.2 nM. Also, in the assay with NCI-H1975, the “A-431/NCI-H1975 Selectivity” value turned out to be 25.6.
On to `C=CC(=O)Nc1cc(Nc2cc(-c3ccc4cnn(C)c4c3)ncn2)c(OC)cc1N1CCC(OC)CC1` [compound 45], for which the results for the IC50 in the assay with A-431, in the assay with NCI-H1975 and in the assay with PC-9 were 2610 nM, 137 nM and 23.6 nM, respectively. Besides, the “A-431/NCI-H1975 Selectivity” value in the assay on NCI-H1975 was 19.0.
As for `C=CC(=O)Nc1cc(Nc2nccc(-c3ccc4c(cnn4C)c3)n2)c(OC)cc1N(C)CCN1CCN(C2CC2)CC1` [compound 252], the 50% inhibitory concentration (IC50) in the assay with A-431 was found to be 2990 nM; in the assay with NCI-H1975, 188 nM; with PC-9 it was 25.5 nM. Moreover, the “A-431/NCI-H1975 Selectivity” value in the assay with NCI-H1975 is 16.0.
On the same counts, the results for `C=CC(=O)Nc1cc(Nc2cc(-c3ccc4c(cnn4C)c3)ncn2)c(OC)cc1N(C)C1CCN(C(C)=O)CC1` [compound 293] are 2730 nM, 79.6 nM, 54.2 nM and 34.3.
For `C=CC(=O)Nc1c(OCCN(C)C)cc(OC)c(Nc2cc(-c3ccc4c(cnn4C)c3)ncn2)c1F` [compound 178] the same measures were 2000 nM, 42.9 nM, 34.6 nM and 46.7.
For `C=CC(=O)Nc1c(N(C)CCN(C)C(C)C)cc(OC)c(Nc2cc(-c3ccc4c(cnn4C)c3)ncn2)c1F` [compound 197], the IC50 in the assay on A-431 came to 1350 nM; with NCI-H1975, 20.7 nM; with PC-9, 13.4 nM. For the same compound, the “A-431/NCI-H1975 Selectivity” value in the assay on NCI-H1975 is given as 65.1.
On the same counts, the results for `C=CC(=O)Nc1cc(Nc2cc(-c3ccc4c(cnn4C)c3)ncn2)c(OC(F)F)cc1N1CCC(N(C)C)CC1` [compound 175] are 793 nM, 8.1 nM, 26 nM and 98.0.
Consider `C=CC(=O)Nc1cc(Nc2cc(-c3ccc4c(cnn4C)c3)ncn2)c(OC)cc1NCCN(C)C` [compound 58], for which the IC50 with A-431 worked out at 1130 nM; in the assay with NCI-H1975, 8.8 nM; in the assay on PC-9 it was 6.9 nM.
As for `C=CC(=O)Nc1cc(Nc2cc(-c3ccc4c(cnn4C)c3)ncn2)c(OC)cc1N(C)C1CCN(C(C)C)CC1` [compound 142], the half-inhibitory concentration (IC50) in the assay on A-431 came to 968 nM; in the assay with NCI-H1975, 24.5 nM; with PC-9, 32.6 nM. For the same compound, in the assay with NCI-H1975, the “A-431/NCI-H1975 Selectivity” value was 39.5.
For `C=CC(=O)Nc1cc(Nc2nccc(-c3ccc4c(cnn4C)c3)n2)c(OC(F)F)cc1N(C)CCN(C)C` [compound 260] the same measures were 1320 nM, 12.8 nM, 20.1 nM and 103.5.
On the same counts, the results for `C=CC(=O)Nc1cc(Nc2cc(-c3ccc4cnn(C)c4c3)ncn2)c(OC)cc1OCCN(C)C(C)C` [compound 188] are 2790 nM, 114 nM, 55.9 nM and 24.5.
On the same counts, the results for `C=CC(=O)Nc1cc(Nc2cc(-c3ccc4c(cnn4C)c3)ncn2)c(OC(F)F)cc1NCCN(C)C` [compound 122] are 580 nM, 5.2 nM, 11.6 nM and 111.5.
With `C=CC(=O)Nc1cc(Nc2nccc(-c3ccc4c(cnn4C)c3)n2)c(OC)cc1NCCN(C)C` [compound 248], the results for the IC50 in the assay on A-431, in the assay on NCI-H1975 and in the assay with PC-9 were 2850 nM, 13.3 nM and 27.7 nM, respectively. Besides, in the assay on NCI-H1975, the “A-431/NCI-H1975 Selectivity” value was found to be 214.3.
For `C=CC(=O)Nc1cc(Nc2cc(-c3ccc4c(cnn4C)c3)ncn2)c(OC(F)F)cc1N(C)CCN1CCN(C)CC1` [compound 67] the same measures were 891 nM, 14.6 nM, 15 nM and 61.0.
For `C=CC(=O)Nc1cc(Nc2cc(-c3ccc4cnn(C)c4c3)ncn2)c(OC(F)F)cc1N(C)CCN(CC)CC` [compound 183] the same measures were 984 nM, 40.4 nM, 69.8 nM and 24.4.
For `C=CC(=O)Nc1cc(Nc2cc(-c3ccc4cnn(C)c4c3)ncn2)c(OC)cc1N(C)C1CCN(C2CCOCC2)CC1` [compound 221] the same measures were 2440 nM, 70.3 nM, 96 nM and 34.7.
As for `C=CC(=O)Nc1cc(Nc2cc(-c3ccc4c(cnn4C)c3)ncn2)c(OC)cc1N1CCC(N(CC)CC)CC1` [compound 137], the 50% inhibitory concentration (IC50) with A-431 amounted to 597 nM; in the assay on NCI-H1975, 4.8 nM; in the assay with PC-9, 7.6 nM.
Turning to `C=CC(=O)Nc1cc(Nc2cc(-c3ccc4cnn(C)c4c3)ncn2)c(OC)cc1N(C)C1CCN(C)CC1` [compound 54], the IC50 was 1310 nM in the assay with A-431, 111 nM in the assay with NCI-H1975 and 88.2 nM in the assay on PC-9. Moreover, the “A-431/NCI-H1975 Selectivity” value with NCI-H1975 is 11.8.
On the same counts, the results for `C=CC(=O)Nc1cc(Nc2cc(-c3ccc4cnn(C)c4c3)ncn2)c(OC(F)F)cc1N(C)CCN(C)C(C)C` [compound 199] are 1980 nM, 37.8 nM, 24.7 nM and 52.3.
For `C=CC(=O)Nc1cc(Nc2nccc(-c3ccc4c(cnn4C)c3)n2)c(OC)cc1N1CCC(N2C[C@@H](C)N(C)[C@@H](C)C2)CC1` [compound 233] the same measures were 2440 nM, 71.4 nM, 54.9 nM and 34.1.
For the compound `C=CC(=O)Nc1cc(Nc2cc(-c3ccc4c(cnn4C)c3)ncn2)c(OC)cc1N1C[C@@H]2C[C@H]1CN2C` [compound 25], the half-maximal inhibitory concentration (IC50) was found to be 736 nM with A-431, 54.7 nM in the assay with NCI-H1975 and 67.8 nM in the assay with PC-9. The “A-431/NCI-H1975 Selectivity” value with NCI-H1975 stood at 13.5.
On the same counts, the results for `C=CC(=O)Nc1cc(Nc2cc(-c3ccc4c(cnn4C)c3)ncn2)c(OCC)cc1N1C[C@@H](C)N[C@@H](C)C1` [compound 265] are 1620 nM, 20.6 nM, 34.7 nM and 78.9.

The IC50 is the midpoint of a concentration-inhibition curve. Read a high IC50 as lower potency.
